Reference: PubChem BioAssay AID192 (DTP/NCI, 2004)
“And” between values parts separate entries of the source, which are not always exact repeats. Equal entries are not always repeated. Inconclusive results and toxic doses are left out.

Tested on: BDF1 mice, B16 melanoma ip, median survival T/C
Experiment: NCI In Vivo Anticancer Drug Screen. Data for tumor model B16 Melanoma (intraperitoneal) in B6D2F1 (BDF1) mice
Conditions: endpoint: median survival time, higher = longer survival
Summary of the method: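 In this screen, activity was judged from survival or tumor size in treated versus vehicle-treated tumor-bearing mice, reported as T/C.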

[1] = dose: 50.0 mg/kg/injection, schedule: Q01DX009 (ip), vehicle: saline with Tween-80
[2] = dose: 100.0 mg/kg/injection, schedule: Q01DX009 (ip), vehicle: saline with Tween-80
[3] = dose: 50.0 mg/kg/injection, schedule: Q01DX009 (ip), vehicle: Klucel (hydroxypropylcellulose) (HPC)
[4] = dose: 100.0 mg/kg/injection, schedule: Q01DX009 (ip), vehicle: Klucel (hydroxypropylcellulose) (HPC)
[5] = dose: 200.0 mg/kg/injection, schedule: Q01DX009 (ip), vehicle: Klucel (hydroxypropylcellulose) (HPC)
[6] = dose: 400.0 mg/kg/injection, schedule: Q01DX009 (ip), vehicle: Klucel (hydroxypropylcellulose) (HPC)
[7] = dose: 12.5 mg/kg/injection, schedule: Q01DX009 (ip), vehicle: saline with Tween-80
[8] = dose: 25.0 mg/kg/injection, schedule: Q01DX009 (ip), vehicle: saline with Tween-80
[9] = dose: 6.25 mg/kg/injection, schedule: Q01DX009 (ip), vehicle: saline with Tween-80
[10] = dose: 200.0 mg/kg/injection, schedule: Q01DX009 (ip), vehicle: saline with Tween-80

Question: Which T/C (dose: 7.5 mg/kg/injection, schedule: Q01DX009 (ip), vehicle: saline) does the source give for `NCCCC(NN)C(=O)O` (stereo not drawn) here?
Answer: 109 % of control

Question: What about the T/C (dose: 15.0 mg/kg/injection, schedule: Q01DX009 (ip), vehicle: saline) of the same molecule?
Answer: 111 % of control

Question: And the T/C (dose: 30.0 mg/kg/injection, schedule: Q01DX009 (ip), vehicle: saline)?
Answer: 104 % of control

Question: Which T/C [1] does the source give for `Cc1cc2[nH]c(=O)[nH]c2cc1C` here?
Answer: 97 % of control

Question: What about the T/C [2] of the same molecule?
Answer: 90 % of control

Question: How did the T/C (dose: 6.25 mg/kg/injection, schedule: Q01DX009 (ip), vehicle: Klucel (hydroxypropylcellulose) (HPC)) turn out when `Cc1ccc(NCC2(/N=C/c3ccccc3)OC(CO)C(O)C2O)cc1` (stereo not drawn) was run?
Answer: 98 % of control

Question: What about the T/C (dose: 12.5 mg/kg/injection, schedule: Q01DX009 (ip), vehicle: Klucel (hydroxypropylcellulose) (HPC)) of the same molecule?
Answer: 109 % of control

Question: And the T/C (dose: 25.0 mg/kg/injection, schedule: Q01DX009 (ip), vehicle: Klucel (hydroxypropylcellulose) (HPC))?
Answer: 91 % of control and 95 % of control

Question: And the T/C [3]?
Answer: 90 % of control and 92 % of control

Question: What about the T/C [4] of the same molecule?
Answer: 93 % of control and 114 % of control

Question: What about the T/C (dose: 177.0 mg/kg/injection, schedule: Q01DX009 (ip), vehicle: Klucel (hydroxypropylcellulose) (HPC)) of the same molecule?
Answer: 123 % of control

Question: What about the T/C [5] of the same molecule?
Answer: 104 % of control

Question: And the T/C (dose: 266.0 mg/kg/injection, schedule: Q01DX009 (ip), vehicle: Klucel (hydroxypropylcellulose) (HPC))?
Answer: 123 % of control

Question: What about the T/C [6] of the same molecule?
Answer: 109 % of control

Question: What does the source list for `Cc1[nH]c(=O)[nH]c(=O)c1NC(=O)c1ccccc1[N+](=O)[O-]`?
Answer: T/C [7]: 100 % of control; T/C [8]: 102 % of control; T/C [1]: 102 % of control

Question: Which results are given for `C[Si](C)(C)O/C=C1\CCCCC1=O`?
Answer: T/C [9]: 96 % of control; T/C [7]: 99 % of control; T/C [8]: 92 % of control; T/C [1]: 94 % of control; T/C [2]: 88 % of control; T/C [10]: 94 % of control

Question: For `CCSc1nc2nccnc2c(=O)[nH]1`, which T/C [4] is on record?
Answer: 102 % of control

Question: What about the T/C [5] of the same molecule?
Answer: 97 % of control

Question: `COc1cc2c(c(OC)c1OC)-c1ccc(OC)c(=O)cc1[C@@H](NC(=O)c1ccccc1)CC2` was tested. Which T/C (dose: 1.0 mg/kg/injection, schedule: Q01DX009 (ip), vehicle: Klucel (hydroxypropylcellulose) (HPC)) did it give?
Answer: 173 % of control and 190 % of control

Question: And the T/C (dose: 2.0 mg/kg/injection, schedule: Q01DX009 (ip), vehicle: Klucel (hydroxypropylcellulose) (HPC))?
Answer: 156 % of control and 161 % of control

Question: Which T/C (dose: 6.25 mg/kg/injection, schedule: Q01DX009 (ip), vehicle: water) does the source give for `COc1cc2ccncc2cc1O` here?
Answer: 104 % of control

Question: What about the T/C (dose: 12.5 mg/kg/injection, schedule: Q01DX009 (ip), vehicle: water) of the same molecule?
Answer: 95 % of control

Question: And the T/C (dose: 25.0 mg/kg/injection, schedule: Q01DX009 (ip), vehicle: water)?
Answer: 109 % of control

Question: What about the T/C (dose: 50.0 mg/kg/injection, schedule: Q01DX009 (ip), vehicle: water) of the same molecule?
Answer: 98 % of control

Question: With `COc1ccc(N=Cc2ccc(C=Nc3ccc(OC)cc3)cc2)cc1` as the molecule, how does the T/C [3] read?
Answer: 92 % of control and 94 % of control

Question: What about the T/C [4] of the same molecule?
Answer: 96 % of control

Question: And the T/C [5]?
Answer: 88 % of control and 93 % of control

Question: Which results are given for `CC[n+]1c(-c2ccccc2)c2cc(N)ccc2c2ccc(N)cc21`?
Answer: T/C (dose: 0.75 mg/kg/injection, schedule: Q01DX009 (ip), vehicle: water): 98 % of control; T/C (dose: 1.0 mg/kg/injection, schedule: Q01DX009 (ip), vehicle: saline): 95 % of control; T/C (dose: 1.5 mg/kg/injection, schedule: Q01DX009 (ip), vehicle: water): 106 % of control; T/C (dose: 1.56 mg/kg/injection, schedule: Q01DX009 (ip), vehicle: saline): 105 % of control; T/C (dose: 2.0 mg/kg/injection, schedule: Q01DX009 (ip), vehicle: saline): 95 % of control; T/C (dose: 3.0 mg/kg/injection, schedule: Q01DX009 (ip), vehicle: water): 108 % of control; T/C (dose: 3.12 mg/kg/injection, schedule: Q01DX009 (ip), vehicle: saline): 158 % of control; T/C (dose: 4.0 mg/kg/injection, schedule: Q01DX009 (ip), vehicle: saline sonified): 120 % of control; T/C (dose: 4.0 mg/kg/injection, schedule: Q01DX009 (ip), vehicle: saline): 108 % of control; T/C (dose: 6.0 mg/kg/injection, schedule: Q01DX009 (ip), vehicle: water): 112 % of control; T/C (dose: 8.0 mg/kg/injection, schedule: Q01DX009 (ip), vehicle: saline sonified): 115 % of control; T/C (dose: 8.0 mg/kg/injection, schedule: Q01DX009 (ip), vehicle: saline): 108 % of control

Question: What does the source list for `CC1CCC2(CC1)CCN(CCCN(C)C)CC2`?
Answer: T/C (dose: 50.0 mg/kg/injection, schedule: Q01DX009 (ip), vehicle: saline): 99 % of control; T/C (dose: 100.0 mg/kg/injection, schedule: Q01DX009 (ip), vehicle: saline): 110 % of control

Question: What does the source list for `N=[N+]=CC(=O)CCC(NC(=O)C(CCC(=O)C=[N+]=N)NC(=O)CCC(N)C(=O)O)C(=O)O` (stereo not drawn)?
Answer: T/C (dose: 0.01 mg/kg/injection, schedule: Q01DX009 (ip), vehicle: other): 96 % of control and 100 % of control and 106 % of control; T/C (dose: 0.05 mg/kg/injection, schedule: Q01DX009 (ip), vehicle: saline): 100 % of control; T/C (dose: 0.1 mg/kg/injection, schedule: Q01DX009 (ip), vehicle: saline): 117 % of control; T/C (dose: 0.1 mg/kg/injection, schedule: Q01DX009 (ip), vehicle: suspension in saline): 90 % of control; T/C (dose: 0.2 mg/kg/injection, schedule: Q01DX009 (ip), vehicle: Klucel (hydroxypropylcellulose) (HPC)): 90 % of control; T/C (dose: 0.2 mg/kg/injection, schedule: Q01DX009 (ip), vehicle: suspension in saline): 103 % of control; T/C (dose: 0.4 mg/kg/injection, schedule: Q01DX009 (ip), vehicle: Klucel (hydroxypropylcellulose) (HPC)): 92 % of control; T/C (dose: 0.4 mg/kg/injection, schedule: Q01DX009 (ip), vehicle: suspension in saline): 101 % of control; T/C (dose: 0.5 mg/kg/injection, schedule: Q01DX009 (ip), vehicle: other): 87 % of control; T/C (dose: 0.8 mg/kg/injection, schedule: Q01DX009 (ip), vehicle: Klucel (hydroxypropylcellulose) (HPC)): 100 % of control; T/C (dose: 0.8 mg/kg/injection, schedule: Q01DX009 (ip), vehicle: suspension in saline): 100 % of control; T/C (dose: 1.6 mg/kg/injection, schedule: Q01DX009 (ip), vehicle: Klucel (hydroxypropylcellulose) (HPC)): 100 % of control; T/C (dose: 1.6 mg/kg/injection, schedule: Q01DX009 (ip), vehicle: suspension in saline): 105 % of control; T/C (dose: 2.5 mg/kg/injection, schedule: Q04DX003 (ip), vehicle: water): 105 % of control; T/C (dose: 5.0 mg/kg/injection, schedule: Q04DX003 (ip), vehicle: water): 105 % of control; T/C (dose: 10.0 mg/kg/injection, schedule: Q04DX003 (ip), vehicle: other): 122 % of control; T/C (dose: 10.0 mg/kg/injection, schedule: Q04DX003 (ip), vehicle: water): 107 % of control; T/C (dose: 5.0 micrograms/kg/injection, schedule: Q01DX009 (ip), vehicle: water): 123 % of control; T/C (dose: 10.0 micrograms/kg/injection, schedule: Q01DX009 (ip), vehicle: water): 94 % of control; T/C (dose: 50.0 micrograms/kg/injection, schedule: Q01DX009 (ip), vehicle: water): 115 % of control; T/C (dose: 100.0 micrograms/kg/injection, schedule: Q01DX009 (ip), vehicle: water): 89 % of control

Question: With `CCSc1ccc2c(cc1=O)[C@@H](NC1OC(CO)C(O)C(O)C1O)CCc1cc(OC)c(OC)c(OC)c1-2` (stereo partly drawn) as the molecule, how does the T/C (dose: 50.0 mg/kg/injection, schedule: Q01DX009 (ip), vehicle: other) read?
Answer: 101 % of control

Question: And the T/C (dose: 100.0 mg/kg/injection, schedule: Q01DX009 (ip), vehicle: other)?
Answer: 109 % of control

Question: `O=C(Oc1ccc(-c2ccc(Br)cc2)cc1)c1ccco1` was tested. Which T/C [1] did it give?
Answer: 88 % of control

Question: Which results are given for `COc1ccc(NC(=O)Oc2cc(C)cc(C)c2)cc1`?
Answer: T/C [4]: 96 % of control; T/C (dose: 100.0 mg/kg/injection, schedule: Q04DX003 (ip), vehicle: Klucel (hydroxypropylcellulose) (HPC)): 112 % of control; T/C [5]: 96 % of control; T/C (dose: 200.0 mg/kg/injection, schedule: Q04DX003 (ip), vehicle: Klucel (hydroxypropylcellulose) (HPC)): 106 % of control; T/C [6]: 89 % of control; T/C (dose: 400.0 mg/kg/injection, schedule: Q04DX003 (ip), vehicle: Klucel (hydroxypropylcellulose) (HPC)): 112 % of control

Question: For `Cc1ccc2nc(-c3ccc(N=Cc4ccccc4O)cc3)sc2c1`, which T/C (dose: 25.0 mg/kg/injection, schedule: Q01DX009 (ip), vehicle: olive oil, sesame oil, peanut oil) is on record?
Answer: 87 % of control

Question: And the T/C (dose: 50.0 mg/kg/injection, schedule: Q01DX009 (ip), vehicle: olive oil, sesame oil, peanut oil)?
Answer: 86 % of control

Question: Which T/C [9] does the source give for `Cc1ccc(NC(=O)Nc2cccc(Cl)c2C)cc1NC(=O)Nc1cccc(Cl)c1C` here?
Answer: 94 % of control

Question: And the T/C [7]?
Answer: 86 % of control

Question: What about the T/C [8] of the same molecule?
Answer: 88 % of control

Question: For `COc1ccc(C(=O)C(C)Br)c(OCc2ccccc2)c1OC` (stereo not drawn), which T/C [2] is on record?
Answer: 95 % of control

Question: And the T/C (dose: 100.0 mg/kg/injection, schedule: Q04DX003 (ip), vehicle: saline with Tween-80)?
Answer: 94 % of control

Question: And the T/C [10]?
Answer: 87 % of control

Question: What about the T/C (dose: 200.0 mg/kg/injection, schedule: Q04DX003 (ip), vehicle: saline with Tween-80) of the same molecule?
Answer: 100 % of control

Question: And the T/C (dose: 400.0 mg/kg/injection, schedule: Q04DX003 (ip), vehicle: saline with Tween-80)?
Answer: 97 % of control
